Results published in patent US20240252674A1, “AGENTS FOR DIRECTED CONJUGATION TECHNIQUES AND CONJUGATED PRODUCTS” (Biohaven Therapeutics Ltd., priority 2021, published 2024).
Where two headings read alike, the source gives them in different places. Where no end group is shown, it is not given here.

Legend:
[1] = target: IgG; test: Binding of peptide IgG binder (directing group) to IgG; settings: Kd of the directing group included in the peptide IgG binder
[2] = target: Immunoglobulin G
[3] = target: Immunoglobulin G; remark: listed apart in the source

Kd [1] [nM] | Molecule | further results
15 | DCAWXLGELVWCT peptide [cyclic peptide IgG binder] | 
600 | GSYWYDVWF peptide [linear peptide IgG binder] | 
 | cyclic peptide IgG binder (DCAWXLGELVWCT peptide) | Kd [2]: 15 nM
 | GSYWYDVWF (not fully specified) [linear peptide IgG binder (… peptide)] | Kd [3]: 600 nM
